{
  "source": "paper PMC5847048",
  "about": "(Psychopharmacology, 2017)",
  "key": {"[1]": {"tested_on": "aged mice (22–24 months old)", "assay": "Radial maze working memory task", "assay_type": "in vivo, mouse", "protocol": "In the radial arm maze task, treatments were administered subcutaneously (s.c.) once a day 60 min prior to testing from the 2 days of habituation to the 12 days of memory testing.\nThe radial maze (Imetronic system, Pessac, France) was fully automated and enabled by video-tracking automatic testing and recording. Briefly, each mouse was separately assigned to six adjacent arms which were grouped into three pairs (A, B, C). These three pairs were presented repeatedly among the successive trials of each testing session. The location of the food reward varied in each pair according to an alternation rule among successive trials. Namely, among the two arms opened in a specific trial, the food was inserted in the arm which was not visited in the previous trial within the same pair. The mouse must therefore remember which of the two arms was visited in a specific trial until next presentation of the same pair, and so on in order to alternate its choice among successive presentations of any pair. At the beginning of each daily session, the mouse was placed in the central platform of the radial maze with all arms closed. One pair of arms only was opened at the beginning of each trial, and the mouse was required to visit one arm. The door of the non-chosen arm was closed as soon as the mouse reached the end of the chosen arm. The mouse was allowed to run back to the central platform of his own accord, and then, the door of the chosen arm was closed. The mouse remained in the central platform until the following trial (intertrial interval 10 s). Since three pairs were concurrently used, three specific arm visits must be kept in memory by the mouse until their utilization by using short-term working memory. After 2 days of free exploration in the maze (habituation), mice were submitted to 12 consecutive testing sessions: one session of 23 trials (3 “acquisition-only trials,” one by pair, and 20 “acquisition and test trials”) per day, i.e., a total of 276 trials (240 test trials).\nEach session consisted of alternate presentations of pairs A, B, and C. The first three trials with each pair were acquisition trials (both arms rewarded). Each of the following trials was at the same time an acquisition trial (for the following trial with the same pair) and a test trial (for the arm visit made during the preceding trial with the same pair); the rewarded arm was the one that has not been visited on the preceding trial with the same pair. Memory demand varied across successive trials according to the retention interval RI (i.e., the number of intervening trials with other pairs between two successive presentations of the same pair). The retention interval for one specific arm visit (e.g., within pair A) depends on the number of concurring trials (i.e., with pairs B and C) occurring till next trial with the same pair (A). Indeed, such a variable amount of interposed trials proportionally increases the delay between acquisition and test and may also generate retroactive interference. There are five levels of retention interval: from 0, corresponding to “no interposed pair,” to 4, corresponding to a sequence of four interposed trials between n-1 and n trials.\nDuring habituation, the time needed for visiting all six arms per session day was measured. During memory testing, memory performance was evaluated according to the percentage of correct alternation responses between successive trials with the same pair in three different manners."}, "rats": {"tested_on": "rats", "design": "method as in Bretin et al. [2017]", "settings": "acute administration, ref Bretin et al. [2017]; cited from earlier work"}, "mice": {"tested_on": "mice", "assay": "Primary observation (Irwin) test", "settings": "S 47445 alone, 3 to 100 mg/kg p.o.; mice", "quoted_text": "Male Rj: C57BL/6J mice (Elevage Janvier, 53940 Le Genest-Saint-Isle, France), 23–27 g body weight range, were stabilized for at least 5 days after delivery in macrolon cages in groups of 10 (housing period) (25 × 19 × 13 cm) and then of 4 (starting the day before the test and during the test) in macrolon cages (25 × 19 × 13 or 32 × 13 × 14 cm) on wood litter with free access to food and water.\nBetween one and three treated groups were compared with the same control at any one time. […] In order to keep the same conditions, all the mice receiving a single treatment also received another administration with vehicle.\nBehavioral modifications, physiological and neurotoxicity symptoms, and rectal temperature were recorded according to a standardized observation grid derived from that of Irwin. The grid contains the following items: death*, convulsions*, tremor*, Straub tail*, altered activity, excitation, jumping*, abnormal gait* (rolling, tip-toe), motor incoordination*, altered muscle tone, loss of grasping, akinesia, catalepsy, loss of traction, writhing*, piloerection*, stereotypies* (sniffing, chewing, head movements), head-twitches*, scratching*, altered respiration*, aggression*, altered fear, altered reactivity to touch, ptosis, exophthalmia, loss of righting reflex, loss of corneal reflex, analgesia, defecation/diarrhea, salivation, lacrimation, and rectal temperature (hypothermia/hyperthermia)."}, "normal adult mice": {"tested_on": "normal adult mice", "design": "method as in Bretin et al. [2017]", "settings": "acute administration, ref Bretin et al. [2017]; cited from earlier work"}, "middle-aged mice": {"tested_on": "middle-aged mice", "design": "method as in Giralt et al. [2017]", "settings": "ref Giralt et al. [2017]; cited from earlier work"}, "[2]": {"description": "The sampling times were 30 min, 1, 2, 4, and 6 h.\nPlasma was extracted from the blood sample by centrifugation (+ 4 °C, 1500g, 10 min) and stored at − 80 °C. Then, plasma samples were sent in dry ice to Celerion (Switzerland) for the pharmacokinetic analysis."}, "[3]": {"tested_on": "aged mice (18–19 months old)", "assay": "Sequential/spontaneous alternation (SA) working memory task in T-maze", "assay_type": "in vivo, mouse", "settings": "ITI 90 s", "description": "Treatments were administered per os daily for nine consecutive days for studies involving the CSD and SA tasks. The 8th and the 9th oral administrations were given 60 min before acquisition and test phases in the CSD task, or before the training and the test sessions in the SA task.\nThe spontaneous alternation (SA) task was performed in independent groups of mice as regards to the CSD and radial maze tasks. The SA task allows investigation of aged-induced working memory impairments (Vandesquille et al. [2011]). In this task, mice are submitted to a series of successive choices in a T-maze. To alternate from trial to trial, animals have to remember at each choice (except the first one) only the previous trial and to reset the interfering information from trial to trial over a series. This resetting mechanism is a main aspect of working memory (Aggleton et al. [1986]; Béracochéa and Jaffard, [1987]; Kesner [2005]).\nBehavioral tests were conducted in a gray Plexiglas T-maze. Stem and arms are 35 cm long, 15 cm wide, and 10 cm high. The starting box (10 cm × 12 cm) and each goal arm are separated from the central alley by a vertical sliding door, with opening and closing monitored by a computer. Photoelectric cells allow recording of both the choice of the goal arm (left or right) and the latency (in seconds) that elapsed between the opening of the starting box and the closing of the goal box. The T-maze is located at the center of a room with various allocentric cues (white or black or striped card boards) located on the wall 1 m above the apparatus.\nAnimals were not food deprived, and no food reinforcement was used. Animals were first submitted to a habituation phase consisting of two free exploration sessions of 10 min each, over two consecutive days (one session per day) in the apparatus with all doors opened. At the end of the habituation phase, all animals were submitted to a training phase, involving a series of seven successive trials separated by a 30-s intertrial interval (ITI). The training phase was aimed at familiarizing the animals with the opening and closing of the doors.\nFor the training session, animals were submitted to a sequence of seven successive identical trials. At the beginning of a trial, mice were placed in the starting box and after a confinement period (30 s, predefined ITI), the door to the stem was opened. When the mouse entered one of the goal arms, the door was closed and the chosen arm was recorded. After a 30-s confinement period in the chosen arm, the mouse was gently returned to the starting box for a second trial, identical to the first one. To avoid olfactory cues in the apparatus, visible traces of urine were removed and the general procedure was implemented as in the training phase, except that the ITI was extended to 90 s and animals were submitted to a series of […] successive trials. […] Moreover, an 8th trial was added to the series which was separated from the 7th one by a 5-s ITI. […] The alternation score (in percentage) was used as an index of memory performance. An alternation is defined as a visit in a given arm followed by a visit into the other arm. The successive sequence of visits for the seven first trials determines the level of alternation. A percentage of alternation was calculated: number of alternations performed/number maximal of alternation. This percentage is calculated for each mouse.\nFor the sequential alternation task, mean and standard errors of the mean (SEM) were calculated for each group of treatment. In addition to % alternation drawn over the seven trials of the series, behavioral performances were also expressed in percentage of alternation drawn from blocks of two consecutive trials (block 1: trials 2 + 3; block 2: trials 4 + 5; block 3: trials 6 + 7). The analyses per trial blocks allowed evaluation of proactive interference over the series (Vandesquille et al. [2011], [2013]). Statistical analyses were performed using the Statview 5.0 software. […]"}, "[4]": {"settings": "S 47445 0.3 mg/kg p.o. alone, repeated (day 10), blood, middle-aged mice"}, "[5]": {"settings": "S 47445 0.01 mg/kg p.o. alone, n = 12"}, "[6]": {"settings": "S 47445 0.03 mg/kg p.o. alone, n = 12"}, "[7]": {"settings": "S 47445 0.3 mg/kg p.o. alone, n = 12"}, "[8]": {"settings": "S 47445 1.0 mg/kg p.o. alone, n = 12"}},
  "note": "Where two headings read alike, the source gives them in different places.",
  "data": [
    {"smiles": "O=C1c2cc3nnn(CCc4cccc(F)c4)c(=O)c3cc2OCN1C1CC1", "note": "[S 47445]", "values": [
      {"measurement": "Overall memory performance (mean percentage of correct responses over 12 days)", "setting": "[1]; S 47445 0.3 mg/kg s.c. once a day, aged mice, versus aged vehicle (p ≤ 0.05)", "result": "better memory performance as compared to aged vehicle-treated mice"},
      {"measurement": "Performance as a function of retention interval (RI 0–4) versus chance level", "setting": "[1]; S 47445 0.3 mg/kg s.c., aged mice (at least p ≤ 0.01)", "result": "remained significantly above chance level regardless the RI level"},
      {"measurement": "Performance as a function of proactive interference", "setting": "[1]; S 47445 0.3 mg/kg s.c., aged mice, data not shown", "result": "ameliorated performance whatever the level of proactive interference"},
      {"measurement": "Performance as a function of retention interval (RI 0–4) versus chance level", "setting": "[1]; all other groups (S 47445 0.1 and 1 mg/kg s.c.), aged mice", "result": "dropped to chance level above R1 = 1"},
      {"measurement": "Episodic-like memory in object recognition", "setting": "rats", "result": "dose-related improvement"},
      {"measurement": "Observable effects in the Irwin test", "setting": "mice", "result": "devoid of any observable effect"},
      {"measurement": "Working-like memory in spontaneous alternation task", "setting": "normal adult mice", "result": "dose-related improvement"},
      {"measurement": "In vivo CA3-CA1 long-term potentiation and structural synaptic changes", "setting": "middle-aged mice", "result": "rescues in vivo CA3-CA1 long-term potentiation and structural synaptic changes"},
      {"measurement": "Mean AUClast [% CV]", "setting": "[2]; [4]", "result": "32.1 [7.83] ng h/mL"},
      {"measurement": "Mean Cmax [% CV]", "setting": "[2]; [4]", "result": "10.2 [13.7] ng/mL"},
      {"measurement": "Median Tmax [range]", "setting": "[2]; [4]", "result": "1.5 [1–4] h"},
      {"measurement": "T1/2z [% CV]", "setting": "[2]; [4]", "result": "2.09 [32.0] h"},
      {"measurement": "Blood concentration at the active doses used in the pharmacological experiments", "setting": "[2]; S 47445, limit of quantification 1 ng/ml", "result": "below the limit of quantification"},
      {"measurement": "tmax", "setting": "[2]; S 47445, not changed following combination", "result": 1.5, "unit": "h"},
      {"measurement": "Apparent elimination half-life", "setting": "[2]; mouse, in vivo", "result": "2.1 to 3.6", "unit": "h"},
      {"measurement": "Mean AUClast [% CV]", "setting": "[2]; mouse, in vivo", "result": "32.6 [23.0] ng h/mL"},
      {"measurement": "Mean Cmax [% CV]", "setting": "[2]; mouse, in vivo", "result": "8.46 [20.8] ng/mL"},
      {"measurement": "Median Tmax [range]", "setting": "[2]; mouse, in vivo", "result": "1.5 [1–2] h"},
      {"measurement": "T1/2z [% CV]", "setting": "[2]; mouse, in vivo", "result": "3.58 [66.9] h"},
      {"measurement": "Time after dosing at which Cmax was reached", "setting": "[2]; mouse, in vivo", "result": "1 to 4", "unit": "h"},
      {"measurement": "Alternation score, 3rd block of trials (trials 6 + 7)", "setting": "[3]; [5]", "result": "45.833 ± 9.650", "unit": "n = 12%"},
      {"measurement": "Alternation score, seven first trials of the series", "setting": "[3]; [5]", "result": "59.722 ± 2.477", "unit": "n = 12%"},
      {"measurement": "Alternation score, 3rd block of trials (trials 6 + 7)", "setting": "[3]; [6]", "result": "50.000 ± 8.704", "unit": "n = 12%"},
      {"measurement": "Alternation score, seven first trials of the series", "setting": "[3]; [6]", "result": "61.11 ± 4.738", "unit": "n = 12%"},
      {"measurement": "Alternation score, 3rd block of trials (trials 6 + 7)", "setting": "[3]; S 47445 0.1 mg/kg p.o. alone, n = 12", "result": "70.833 ± 7.432", "unit": "n = 12%"},
      {"measurement": "Alternation score, seven first trials of the series", "setting": "[3]; S 47445 0.1 mg/kg p.o. alone, n = 12, 0.1 mg/kg", "result": "alternated significantly above vehicles"},
      {"measurement": "Alternation score, seven first trials of the series", "setting": "[3]; S 47445 0.1 mg/kg p.o. alone, n = 12, listed as S47445, 0.1 mg/kg", "result": "65.278 ± 3.815", "unit": "n = 12 %"},
      {"measurement": "Alternation score, 3rd block of trials (trials 6 + 7)", "setting": "[3]; [7]", "result": "50.000 ± 8.704", "unit": "n = 12%"},
      {"measurement": "Alternation score, seven first trials of the series", "setting": "[3]; [7]", "result": "61.111 ± 2.369", "unit": "n = 12%"},
      {"measurement": "Alternation score, 3rd block of trials (trials 6 + 7)", "setting": "[3]; [8]", "result": "58.333 ± 8.333", "unit": "n = 12%"},
      {"measurement": "Alternation score, seven first trials of the series", "setting": "[3]; [8]", "result": "59.722 ± 3.217", "unit": "n = 12%"}
    ]}
  ]
}
